Reference: article PMC7053292 (Research in Pharmaceutical Sciences, 2020)
Where two headings read alike, the source gives them in different places. Marks after values point to notes of the source that are not given here.

What was measured:
[1] = target: T1, α-glucosidase from Saccharomyces cerevisiae (Saccharomyces cerevisiae, UniProt P53341); experiment: Kinetic study on α-glucosidase; type: biochemical; settings: for α-Glucosidase inhibition type: Lineweaver-Burk and Dixon plots; for Ki: α-Glucosidase Ki, from slope (Km/Vmax) vs [I], substrate 4-pNPG, free enzyme
T1 sequence (P53341 whole entry): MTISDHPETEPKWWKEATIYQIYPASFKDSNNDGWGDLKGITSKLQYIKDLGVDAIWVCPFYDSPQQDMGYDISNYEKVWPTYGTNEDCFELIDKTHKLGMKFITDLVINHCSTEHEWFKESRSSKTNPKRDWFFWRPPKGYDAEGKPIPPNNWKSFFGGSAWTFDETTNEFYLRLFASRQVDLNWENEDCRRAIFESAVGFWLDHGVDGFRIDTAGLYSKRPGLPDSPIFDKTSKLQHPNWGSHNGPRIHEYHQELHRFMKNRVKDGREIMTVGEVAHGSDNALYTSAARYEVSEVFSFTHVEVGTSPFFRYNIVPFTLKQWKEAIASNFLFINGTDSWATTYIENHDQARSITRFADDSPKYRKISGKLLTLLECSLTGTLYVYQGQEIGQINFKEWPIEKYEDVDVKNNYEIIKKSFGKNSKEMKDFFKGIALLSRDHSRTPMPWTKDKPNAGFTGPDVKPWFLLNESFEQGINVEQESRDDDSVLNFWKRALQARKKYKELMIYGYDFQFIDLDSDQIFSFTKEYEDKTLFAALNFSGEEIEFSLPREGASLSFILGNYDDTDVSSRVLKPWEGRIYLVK

[2] = target: T2, α-amylase from Aspergillus oryzae (Aspergillus oryzae, UniProt P0C1B3); experiment: biochemical; settings: for inhibition percentage lower than standard inhibitor acarbose on α-amylase: ratio of inhibition percentages, acarbose vs sample; for inhibition at 20 µM: read-out: Inhibition at 0.02 mM (%) α-Amylase
[3] = target: T1, α-glucosidase from Saccharomyces cerevisiae; experiment: α-Glucosidase assay; type: biochemical; settings: for inhibition percentage lower than standard inhibitor acarbose on α-glucosidase: ratio of inhibition percentages, acarbose vs sample; for inhibition at 20 µM: read-out: Inhibition at 0.02 mM (%) α-Glucosidase
[4] = target: T2, α-amylase from Aspergillus oryzae; experiment: Kinetic study on α-amylase; type: biochemical; settings: for α-Amylase inhibition type: Lineweaver-Burk and Dixon plots; for Ki: substrate amylose
DPPH assay = settings: mean ± SD, n = 3; for Inhibitory activity at 0.5 mM (%): DPPH; for IC50: read-out: IC50 (DPPH free radical scavenging)
[5] = IC50 values (mM) α-Amylase, mean ± SD, n = 3
[6] = α-Amylase Ki, from slope (Km/Vmax) vs [I], free enzyme
[7] = α-Amylase Ki´, from 1/Vmax vs [I], enzyme-substrate complex

With `CC(=O)C1CCCN1Cc1ccccc1` (stereo not shown) [4a, N-(benzyl)-2-acetylpyrrolidine] the α-Glucosidase inhibition type [1] was “Mixed type”, the Ki [1] was 290 µM and the IC50 [2] was 3.21 ± 0.65 mM. The “less potential on α-amylase than 4a on α-glucosidase (IC50 ratio)” value ([2]; IC50 on α-amylase vs IC50 of 4a on α-glucosidase) was ~6.2 times, the “less potential on α-amylase than 4b on α-amylase (IC50 ratio)” value ([2]; IC50 on α-amylase vs IC50 of 4b on α-amylase) was “approximately 1.20 times” and the “less potential on α-amylase than 4b on α-glucosidase (IC50 ratio)” value ([2]; IC50 on α-amylase vs IC50 of 4b on α-glucosidase) was “approximately 2.0 times”. The IC50 [2, 5] was 2.72 ± 0.09 mM, the “inhibition percentage lower than standard inhibitor acarbose on α-amylase” value [2] was ~2.13 times and the inhibition at 20 µM [2] was 28.9 ± 0.57%. The IC50 [3] was 520 ± 20 µM, the “inhibition percentage lower than standard inhibitor acarbose on α-glucosidase” value [3] was “approximately 2.21 times” and the inhibition at 20 µM [3] was 40.3 ± 0.8%. The α-Amylase inhibition type [4] was “Mixed type”, the Ki [4, 6] was 230 µM and the Ki [4, 7] was 2350 µM. For the same compound, the “Inhibitory activity at 0.5 mM (%)” value (DPPH assay) was 41.62 ± 0.64^a % and the IC50 (DPPH assay) was 1010 ± 10 µM.

In the case of `C[C@H]1O[C@H](O[C@H]2[C@H](O)[C@@H](O)[C@@H](O[C@H]3[C@H](O)[C@@H](O)C(O)O[C@@H]3CO)O[C@@H]2CO)[C@H](O)[C@@H](O)[C@@H]1N[C@H]1C=C(CO)[C@@H](O)[C@H](O)[C@H]1O` (stereo partly shown) [Acarbose, acarbose, reference compound], the α-Glucosidase inhibition type [1] is reported as “Mixed type”, the inhibition at 20 µM [2] is reported as 61.7 ± 1.14% and the α-Amylase inhibition type [4] is reported as “Mixed type”.

With `CC(=O)C1CCCN1S(=O)(=O)c1ccc(C)cc1` (stereo not shown) [4b, N-(tosyl)-2-acetylpyrrolidine] the α-Glucosidase inhibition type [1] was “Mixed type”, the Ki [1] was 230 µM and the IC50 [2] was 2.72 ± 0.09 mM. For the same compound, the IC50 [2, 5] was 3.21 ± 0.65 mM, the “inhibition percentage lower than standard inhibitor acarbose on α-amylase” value [2] was ~2.13 times and the inhibition at 20 µM [2] was 30.1 ± 0.78%. The IC50 [3] was 1640 ± 80 µM, the “inhibition percentage lower than standard inhibitor acarbose on α-glucosidase” value [3] was “approximately 2.21 times” and the inhibition at 20 µM [3] was 32.31 ± 0.29%. The α-Amylase inhibition type [4] was “Mixed type”, the Ki [4, 6] was 270 µM and the Ki [4, 7] was 710 µM. For the same compound, the “Inhibitory activity at 0.5 mM (%)” value (DPPH assay) was 34.28 ± 0.73^b % and the IC50 (DPPH assay) was 1820 ± 48 µM.
